Test results published in ChEMBL document CHEMBL1127874, “Development of tetrazole bioisosteres in angiotensin II antagonists” (Bioorg Med Chem Lett, 1994).

Legend:
[1] = target: T1, Angiotensin II receptor (AT-1) type-1 (Rattus norvegicus, UniProt P29089+P25095); assay: Binding affinity towards Angiotensin II receptor, type 1 in rat liver membrane using [125I]-angiotensin II (0.1 nM); assay type: cell membranes
T1 sequence (P29089 whole entry): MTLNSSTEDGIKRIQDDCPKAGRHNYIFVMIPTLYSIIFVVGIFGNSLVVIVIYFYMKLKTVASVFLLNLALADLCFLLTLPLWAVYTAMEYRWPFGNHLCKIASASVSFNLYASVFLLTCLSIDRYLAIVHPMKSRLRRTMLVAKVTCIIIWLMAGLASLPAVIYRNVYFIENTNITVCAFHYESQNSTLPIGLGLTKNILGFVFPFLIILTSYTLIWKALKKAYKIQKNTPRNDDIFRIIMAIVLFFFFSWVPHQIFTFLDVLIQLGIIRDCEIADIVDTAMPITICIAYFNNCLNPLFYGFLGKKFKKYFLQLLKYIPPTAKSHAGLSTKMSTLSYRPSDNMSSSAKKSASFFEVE
T1 sequence (P25095 whole entry): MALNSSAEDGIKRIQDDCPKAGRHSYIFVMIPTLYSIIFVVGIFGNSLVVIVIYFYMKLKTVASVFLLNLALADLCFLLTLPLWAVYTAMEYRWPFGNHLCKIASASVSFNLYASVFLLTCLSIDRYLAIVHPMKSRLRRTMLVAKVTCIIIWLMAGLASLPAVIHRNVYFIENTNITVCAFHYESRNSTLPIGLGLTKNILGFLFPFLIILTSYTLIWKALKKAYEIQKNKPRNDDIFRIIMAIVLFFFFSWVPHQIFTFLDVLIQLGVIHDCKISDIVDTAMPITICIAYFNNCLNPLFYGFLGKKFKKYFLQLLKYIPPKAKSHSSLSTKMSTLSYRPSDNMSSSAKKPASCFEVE

[2] = organism: Oryctolagus cuniculus; assay: Inhibitory activity against contractile response to angiotensin II (10 nM) of rabbit aortic rings; assay type: functional; conditions: Aorta

Row | SMILES | IC50 [1] | IC50 [2]
1 | CCCCC1=NC2(CCCC2)C(=O)N1Cc1ccc(-c2ccccc2C2=NOC(=O)C2)cc1 | 25 nM | 140 nM
2 | CCCCC1=NC(C)(C2CCCCC2)C(=O)N1Cc1ccc(-c2ccccc2-c2n[nH]c(O)n2)cc1 (stereo not drawn) | 100 nM | –
3 | CCCCC1=NC2(CCCC2)C(=O)N1Cc1ccc(-c2ccccc2-n2oc(=O)[nH]c2=O)cc1 | 1.4 nM | 2.8 nM
4 | CCCCC1=NC(C)(C2CCCCC2)C(=O)N1Cc1ccc(-c2ccccc2-c2noc(O)n2)cc1 (stereo not drawn) | 0.7 nM | 0.64 nM

Results, then the molecule that gave them:

Row | IC50 [1] | IC50 [2] | SMILES
5 | 60 nM | 67 nM | CCCCC1=NC2(CCCC2)C(=O)N1Cc1ccc(-c2ccccc2-c2nnc(O)o2)cc1
6 | 230 nM | – | CCCCC1=NC2(CCCC2)C(=O)N1Cc1ccc(-c2ccccc2-c2nc(=O)[nH]o2)cc1
7 | 1.7 nM | 2.6 nM | CCCCC1=NC2(CCCC2)C(=O)N1Cc1ccc(-c2ccccc2-c2noc(O)n2)cc1
8 | 1.3 nM | – | CCCCC1=NC2(CCCC2)C(=O)N1Cc1ccc(-c2ccccc2-c2nnn[nH]2)cc1 [IRBESARTAN]
